Laboratory results published in ChEMBL document CHEMBL1201862, “PubChem BioAssay data set” (2004).
Structures can show the parent of a compound that is named as a salt. Activity calls are given as the source filed them.

Assays:
[1] = target: G-protein coupled receptor 55 (Homo sapiens, UniProt Q9Y2T6); experiment: GPR55 antagonists blocking LPI-driven arrestin recruitment, primary screen, imaging, U2OS, beta-arrestin-GFP, LPI agonist (AID 2013); assay type: functional;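 note: antagonist potency measured as reduced agonist-driven arrestin aggregation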
[2] = target: T1, Carboxy-terminal domain RNA polymerase II polypeptide A small phosphatase 1 (Homo sapiens, UniProt Q9GZU7); experiment: inhibitors of CTDSP1, concentration-response testing, biochemical assay, absorbance-based, actives from ultra-high-throughput screening (AID 540297); assay type: functional
T1 sequence (Q9GZU7 whole entry): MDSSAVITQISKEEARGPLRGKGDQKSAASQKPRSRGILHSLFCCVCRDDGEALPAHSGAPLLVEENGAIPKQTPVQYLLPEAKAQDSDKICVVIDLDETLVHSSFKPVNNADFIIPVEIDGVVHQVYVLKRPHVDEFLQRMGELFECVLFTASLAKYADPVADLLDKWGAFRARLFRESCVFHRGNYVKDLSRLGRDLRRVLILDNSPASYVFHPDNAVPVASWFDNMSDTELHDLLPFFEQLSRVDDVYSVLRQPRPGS

[3] = target: DNA (cytosine-5)-methyltransferase 1 (Homo sapiens, UniProt P26358); experiment: DNMT1 methyltransferase inhibitors, confirmation, biochemical, fluorescent molecular beacon (AID 602386); assay type: functional
[4] = target: 26S proteasome non-ATPase regulatory subunit 14 (Homo sapiens, UniProt O00487); experiment: inhibition of proteasome subunit RPN11 – biochemical, fluorescence polarization, uHTS hits, confirmation (AID 602368); assay type: functional
[5] = target: 72 kDa type IV collagenase (Homo sapiens, UniProt P08253); experiment: Dose Response validation of uHTS RPN11 inhibitor hits using a MMP-2 Fluorescence assay.; assay type: functional
Prothrombin = Prothrombin (Bos taurus, UniProt P00735); experiment: thrombin inhibition, dose response, biochemical, fluorescence polarization, uHTS hits (AID 602369); assay type: functional
[6] = target: T2, Histone-lysine N-methyltransferase NSD2 (Homo sapiens, UniProt O96028); assay type: biochemical
T2 sequence (O96028 whole entry): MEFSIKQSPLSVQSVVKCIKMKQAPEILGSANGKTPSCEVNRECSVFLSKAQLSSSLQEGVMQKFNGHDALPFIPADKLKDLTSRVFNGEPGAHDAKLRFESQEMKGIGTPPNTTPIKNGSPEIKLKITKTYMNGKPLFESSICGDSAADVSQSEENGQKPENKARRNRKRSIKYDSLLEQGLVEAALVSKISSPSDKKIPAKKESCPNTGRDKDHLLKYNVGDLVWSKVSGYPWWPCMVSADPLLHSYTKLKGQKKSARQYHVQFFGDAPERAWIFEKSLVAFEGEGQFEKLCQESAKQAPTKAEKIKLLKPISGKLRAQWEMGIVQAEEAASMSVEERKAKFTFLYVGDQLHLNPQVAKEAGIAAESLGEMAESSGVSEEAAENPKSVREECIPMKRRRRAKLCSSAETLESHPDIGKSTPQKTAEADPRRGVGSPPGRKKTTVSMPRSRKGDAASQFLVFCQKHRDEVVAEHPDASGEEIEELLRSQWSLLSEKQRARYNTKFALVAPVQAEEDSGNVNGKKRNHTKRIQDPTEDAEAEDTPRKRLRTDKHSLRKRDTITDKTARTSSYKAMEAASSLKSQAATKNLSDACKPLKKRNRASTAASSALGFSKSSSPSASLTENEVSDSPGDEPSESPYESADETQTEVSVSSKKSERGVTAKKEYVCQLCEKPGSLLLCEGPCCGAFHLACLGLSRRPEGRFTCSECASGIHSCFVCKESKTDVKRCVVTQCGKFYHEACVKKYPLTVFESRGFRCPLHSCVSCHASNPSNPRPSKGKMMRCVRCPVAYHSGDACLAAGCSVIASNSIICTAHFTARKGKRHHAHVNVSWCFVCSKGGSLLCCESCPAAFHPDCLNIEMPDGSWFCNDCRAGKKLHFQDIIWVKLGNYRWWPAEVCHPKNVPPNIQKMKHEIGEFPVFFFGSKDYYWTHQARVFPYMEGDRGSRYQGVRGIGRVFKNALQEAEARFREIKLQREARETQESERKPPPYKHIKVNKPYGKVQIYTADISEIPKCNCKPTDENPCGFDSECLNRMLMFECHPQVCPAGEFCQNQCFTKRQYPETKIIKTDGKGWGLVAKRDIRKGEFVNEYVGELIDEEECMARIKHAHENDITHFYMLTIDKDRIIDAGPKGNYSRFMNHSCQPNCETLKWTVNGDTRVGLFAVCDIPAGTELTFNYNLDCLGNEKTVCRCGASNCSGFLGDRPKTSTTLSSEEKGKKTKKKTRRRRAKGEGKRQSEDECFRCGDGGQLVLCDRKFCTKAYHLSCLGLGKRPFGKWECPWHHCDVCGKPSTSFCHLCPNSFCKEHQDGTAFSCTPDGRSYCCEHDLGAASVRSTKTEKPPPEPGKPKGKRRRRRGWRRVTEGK

[7] = target: Potassium voltage-gated channel subfamily KQT member 2 (Rattus norvegicus, UniProt O88943); experiment: KCNQ2 potassium channel inhibitors, dose response, cell-based, automated electrophysiology, set II, rat KCNQ2 (AID 588637); assay type: functional
[8] = growth suppression of PTEN-null colon cells, dose response, cell-based, HCT116 PTEN knockout (AID 1047); assay type: functional;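 note: HCT116 colon tumor cells with PTEN knocked out; cells exposed to compound for 60 hours before readout; potency for loss of cell viability measured by luminescence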
[9] = growth suppression of beta-catenin-knockout colon cells, dose response, cell-based, HCT116, human colon tumor (AID 1045); assay type: functional;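 note: HCT116 colon tumor cells with beta catenin knocked out; cells exposed to compound for 60 hours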
[10] = target: Tyrosine-protein phosphatase non-receptor type 11 (Homo sapiens, UniProt Q06124); experiment: SHP2 phosphatase inhibition, dose response, selectivity assay for STEP inhibitor project, biochemical (AID 602367); assay type: functional; conditions: read-out: IC50_Mean
[11] = target: Tyrosine-protein phosphatase non-receptor type 5 (Homo sapiens, UniProt P54829); experiment: STEP phosphatase inhibitors, confirmation, biochemical, fluorescence intensity, uHTS hits (AID 602372); assay type: functional; conditions: read-out: IC50_Mean
[12] = target: Dual specificity protein phosphatase 3 (Homo sapiens, UniProt P51452); experiment: VHR phosphatase inhibition, dose response, selectivity assay for STEP inhibitor project, biochemical (AID 602374); assay type: functional; conditions: read-out: IC50_Mean
[13] = target: T3, Tyrosine-protein phosphatase non-receptor type 22 (Homo sapiens, UniProt Q9Y2R2); experiment: PTPN22 phosphatase inhibition, dose response, selectivity assay for STEP inhibitor project, biochemical (AID 624241); assay type: functional
T3 sequence (Q9Y2R2 whole entry): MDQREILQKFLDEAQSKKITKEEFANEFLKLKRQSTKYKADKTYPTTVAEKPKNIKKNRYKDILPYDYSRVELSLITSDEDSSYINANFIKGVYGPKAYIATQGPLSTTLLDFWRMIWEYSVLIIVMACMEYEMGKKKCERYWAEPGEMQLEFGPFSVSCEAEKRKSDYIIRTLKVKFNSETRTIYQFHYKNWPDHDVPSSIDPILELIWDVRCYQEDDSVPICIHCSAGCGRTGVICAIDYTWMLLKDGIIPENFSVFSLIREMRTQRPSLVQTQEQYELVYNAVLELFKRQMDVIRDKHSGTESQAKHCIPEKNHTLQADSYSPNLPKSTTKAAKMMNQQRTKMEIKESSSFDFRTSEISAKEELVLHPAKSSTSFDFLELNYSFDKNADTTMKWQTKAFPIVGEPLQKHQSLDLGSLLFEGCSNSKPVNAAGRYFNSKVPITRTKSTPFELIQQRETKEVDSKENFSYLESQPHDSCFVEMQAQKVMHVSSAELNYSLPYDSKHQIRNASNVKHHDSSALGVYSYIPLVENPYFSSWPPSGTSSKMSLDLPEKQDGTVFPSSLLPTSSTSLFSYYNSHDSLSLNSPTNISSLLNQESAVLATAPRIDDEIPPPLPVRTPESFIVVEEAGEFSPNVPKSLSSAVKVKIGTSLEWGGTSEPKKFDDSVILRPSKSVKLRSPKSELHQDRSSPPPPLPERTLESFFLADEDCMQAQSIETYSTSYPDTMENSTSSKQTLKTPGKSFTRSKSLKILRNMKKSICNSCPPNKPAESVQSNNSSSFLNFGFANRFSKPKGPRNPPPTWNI

[14] = target: T4, Low molecular weight phosphotyrosine protein phosphatase (Homo sapiens, UniProt P24666); assay type: functional; conditions: read-out: IC50_Mean
T4 sequence (P24666 whole entry): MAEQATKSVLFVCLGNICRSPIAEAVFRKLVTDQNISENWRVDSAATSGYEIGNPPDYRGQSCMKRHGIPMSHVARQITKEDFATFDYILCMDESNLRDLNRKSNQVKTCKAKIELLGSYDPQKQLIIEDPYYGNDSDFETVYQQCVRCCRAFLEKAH

[15] = target: T4, Low molecular weight phosphotyrosine protein phosphatase; assay type: functional; conditions: read-out: IC50_Mean; remark: listed apart in the source
[16] = target: Ras and Rab interactor 1/Tyrosine-protein kinase ABL1 (Homo sapiens, UniProt P00519+Q13671); assay type: functional;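 note: biochemical TR-FRET dose-response test measuring inhibition of binding between Rin1 and Abl proteins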
[17] = target: T5, ATP-dependent translocase ABCB1 (Homo sapiens, UniProt P08183); experiment: ABCG2 efflux pump inhibitor potency, dose response, Ig-MXP3 cells, JC-1, flow cytometry, set 2 (AID 504566); assay type: functional; conditions: read-out: EC50_MICROM_;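 note: flow cytometry median green fluorescence of retained JC-1 dye; potency of efflux pump inhibition measured as rising substrate retention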
[18] = target: T5, ATP-dependent translocase ABCB1; experiment: ABCB1 efflux inhibitor potency, dose response, Jurkat-DNR cells, JC-1, flow cytometry, set 2 (AID 504569); assay type: functional; conditions: read-out: EC50_MICROM_;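 note: potency of pump inhibitors that raise cellular JC-1 green fluorescence up to the nicardipine level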
[19] = target: Aryl hydrocarbon receptor (Homo sapiens, UniProt P35869); conditions: Potency;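 note: confirmatory quantitative high-throughput screen measuring activation of the AhR signaling pathway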
[20] = target: T6, Mitochondrial peptide methionine sulfoxide reductase (Bos taurus, UniProt P54149); assay type: functional;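 for IC50: absorbance read-out, biochemical high-throughput dose-response screen for MsrA inhibitors, confirmatory; recombinant bovine MsrA coupled to E. coli TrxB with NADPH and selenocystamine; potency is for inhibitors of MsrA activity on DMSO substrate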
[21] = target: Sphingosine 1-phosphate receptor 2 (Homo sapiens, UniProt O95136); experiment: Late-stage fluorescence-based dose-response cell-based counterscreen assay to identify agonists of the Sphingosine 1-Phosphate Receptor 3 (S1P3): Sphingosine 1-Phosphate Receptor 2 (S1P2) agonist assay.; assay type: functional
[22] = target: T7, Sphingosine 1-phosphate receptor 4 (Homo sapiens, UniProt O95977); experiment: Late-stage fluorescence-based dose-response cell-based counterscreen assay to identify agonists of the Sphingosine 1-Phosphate Receptor 3 (S1P3): Sphingosine 1-Phosphate Receptor 4 (S1P4) agonist assay.; assay type: functional
T7 sequence (O95977 whole entry): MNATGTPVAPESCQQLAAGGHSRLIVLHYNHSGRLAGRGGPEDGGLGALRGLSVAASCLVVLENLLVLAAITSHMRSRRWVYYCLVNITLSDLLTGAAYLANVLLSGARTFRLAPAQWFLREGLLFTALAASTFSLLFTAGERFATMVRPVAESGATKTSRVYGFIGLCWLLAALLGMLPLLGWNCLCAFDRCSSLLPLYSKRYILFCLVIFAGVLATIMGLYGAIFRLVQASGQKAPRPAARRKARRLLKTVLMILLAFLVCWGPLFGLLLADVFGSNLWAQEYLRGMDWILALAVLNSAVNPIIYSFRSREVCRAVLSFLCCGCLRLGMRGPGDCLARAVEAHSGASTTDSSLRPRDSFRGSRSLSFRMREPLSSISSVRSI

[23] = target: T6, Mitochondrial peptide methionine sulfoxide reductase; experiment: Absorbance-based biochemical high throughput dose response assay for activators of Methionine sulfoxide reductase A (MsrA).; assay type: functional
Aurora kinase A = Aurora kinase A (Homo sapiens, UniProt O14965); assay type: functional;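 note: value from the Navigating the Kinome kinase panel profiling, panel entry STK6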
[24] = target: High affinity nerve growth factor receptor (Homo sapiens, UniProt P04629); assay type: functional;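 note: NTRK1 tested as one member of a kinome-wide profiling panel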
[25] = miR-122 activators in hepatoma reporter cells, dose response, cell-based, Huh7 psiCHECK-miR122, Renilla luciferase, cherry-picked (AID 651956); assay type: functional;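 note: huh7 hepatoma cells stably carrying a psiCHECK-2 miR-122 sensor plasmid; renilla luciferase signal reporting endogenous miR-122 activity after 48 h compound exposure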
[26] = target: Hepatocyte nuclear factor 4-alpha (Homo sapiens, UniProt P41235); assay type: functional, cell-based;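 note: biochemical luminescence-based dose-response counterscreen measuring inhibition of HNF4 dimerization, run alongside a screen for blockers of ABHD5–perilipin-5 interaction; split luciferase complementation of HNF4 fusion proteins in cell lysate measuring dimerization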
Hepatocyte nuclear factor 4-alpha, sequence (P41235 whole entry, the tested form may be a part): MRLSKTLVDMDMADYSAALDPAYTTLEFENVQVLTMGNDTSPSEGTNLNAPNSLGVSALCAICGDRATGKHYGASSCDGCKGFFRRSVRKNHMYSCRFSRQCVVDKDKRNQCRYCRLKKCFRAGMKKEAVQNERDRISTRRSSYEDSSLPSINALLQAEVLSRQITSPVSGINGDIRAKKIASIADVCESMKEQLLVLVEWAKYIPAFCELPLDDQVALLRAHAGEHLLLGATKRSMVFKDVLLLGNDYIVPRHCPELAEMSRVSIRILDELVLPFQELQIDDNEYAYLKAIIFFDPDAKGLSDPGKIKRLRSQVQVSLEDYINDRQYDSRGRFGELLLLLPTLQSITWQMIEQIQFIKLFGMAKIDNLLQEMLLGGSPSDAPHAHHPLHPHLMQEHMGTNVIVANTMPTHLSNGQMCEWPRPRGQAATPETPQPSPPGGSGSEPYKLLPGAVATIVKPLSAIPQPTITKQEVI

T5 sequence (P08183 whole entry): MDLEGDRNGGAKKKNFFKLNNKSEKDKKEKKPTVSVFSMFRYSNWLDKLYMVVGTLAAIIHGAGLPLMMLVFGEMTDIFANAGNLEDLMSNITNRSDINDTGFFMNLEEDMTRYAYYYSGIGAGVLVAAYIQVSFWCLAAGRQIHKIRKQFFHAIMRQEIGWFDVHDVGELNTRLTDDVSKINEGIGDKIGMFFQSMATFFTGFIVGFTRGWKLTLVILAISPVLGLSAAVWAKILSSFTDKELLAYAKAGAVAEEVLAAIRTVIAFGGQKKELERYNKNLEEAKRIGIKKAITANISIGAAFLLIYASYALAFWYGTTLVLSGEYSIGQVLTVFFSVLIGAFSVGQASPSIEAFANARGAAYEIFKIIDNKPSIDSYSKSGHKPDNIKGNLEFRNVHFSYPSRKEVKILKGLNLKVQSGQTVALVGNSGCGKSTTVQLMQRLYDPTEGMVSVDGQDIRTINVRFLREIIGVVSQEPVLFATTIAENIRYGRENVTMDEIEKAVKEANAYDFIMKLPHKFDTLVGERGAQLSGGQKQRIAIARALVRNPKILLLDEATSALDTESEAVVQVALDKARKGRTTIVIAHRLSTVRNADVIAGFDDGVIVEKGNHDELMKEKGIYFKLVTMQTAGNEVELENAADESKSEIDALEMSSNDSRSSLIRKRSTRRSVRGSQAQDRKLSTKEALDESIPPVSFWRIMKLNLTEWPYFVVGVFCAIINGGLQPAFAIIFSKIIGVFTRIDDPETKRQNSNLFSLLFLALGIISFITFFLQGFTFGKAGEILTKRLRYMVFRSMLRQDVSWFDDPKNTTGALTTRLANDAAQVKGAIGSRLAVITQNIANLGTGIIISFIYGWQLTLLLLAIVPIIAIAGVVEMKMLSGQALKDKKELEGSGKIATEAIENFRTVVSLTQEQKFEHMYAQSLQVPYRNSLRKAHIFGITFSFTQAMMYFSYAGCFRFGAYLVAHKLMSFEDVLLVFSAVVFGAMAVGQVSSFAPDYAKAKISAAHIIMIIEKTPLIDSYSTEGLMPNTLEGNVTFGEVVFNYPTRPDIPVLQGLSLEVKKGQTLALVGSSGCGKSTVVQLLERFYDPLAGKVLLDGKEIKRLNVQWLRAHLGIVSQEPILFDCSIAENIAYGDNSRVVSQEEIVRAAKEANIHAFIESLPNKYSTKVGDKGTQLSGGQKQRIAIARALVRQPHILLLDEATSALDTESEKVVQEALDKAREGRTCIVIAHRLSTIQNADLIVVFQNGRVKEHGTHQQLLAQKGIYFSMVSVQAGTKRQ
T6 sequence (P54149 whole entry): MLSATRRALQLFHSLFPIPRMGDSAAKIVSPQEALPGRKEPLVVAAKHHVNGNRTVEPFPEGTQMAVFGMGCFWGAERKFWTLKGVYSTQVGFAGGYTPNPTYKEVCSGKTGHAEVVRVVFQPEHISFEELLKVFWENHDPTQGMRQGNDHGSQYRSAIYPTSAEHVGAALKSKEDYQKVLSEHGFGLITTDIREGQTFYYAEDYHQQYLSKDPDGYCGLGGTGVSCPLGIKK
Tyrosine-protein phosphatase non-receptor type 11, sequence (Q06124 whole entry): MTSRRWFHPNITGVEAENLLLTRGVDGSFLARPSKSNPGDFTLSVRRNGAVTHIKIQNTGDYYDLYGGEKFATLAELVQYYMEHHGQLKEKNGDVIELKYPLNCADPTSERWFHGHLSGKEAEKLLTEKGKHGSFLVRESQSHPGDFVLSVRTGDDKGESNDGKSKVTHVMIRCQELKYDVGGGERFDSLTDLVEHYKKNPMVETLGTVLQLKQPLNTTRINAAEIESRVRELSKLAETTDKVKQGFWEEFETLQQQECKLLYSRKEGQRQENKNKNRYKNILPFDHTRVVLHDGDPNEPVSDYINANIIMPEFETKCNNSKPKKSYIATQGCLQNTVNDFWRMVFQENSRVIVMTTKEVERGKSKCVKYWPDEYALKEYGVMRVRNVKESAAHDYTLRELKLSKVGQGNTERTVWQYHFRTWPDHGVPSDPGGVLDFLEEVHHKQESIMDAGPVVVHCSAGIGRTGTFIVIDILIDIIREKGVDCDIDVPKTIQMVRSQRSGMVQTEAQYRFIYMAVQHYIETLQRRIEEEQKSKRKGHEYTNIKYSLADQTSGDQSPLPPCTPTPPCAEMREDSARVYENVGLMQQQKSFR
Dual specificity protein phosphatase 3, sequence (P51452 whole entry): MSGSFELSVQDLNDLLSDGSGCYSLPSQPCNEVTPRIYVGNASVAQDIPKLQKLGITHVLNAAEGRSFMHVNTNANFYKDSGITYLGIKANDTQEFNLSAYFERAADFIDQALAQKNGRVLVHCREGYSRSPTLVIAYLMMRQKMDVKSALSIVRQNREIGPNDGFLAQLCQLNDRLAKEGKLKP
G-protein coupled receptor 55, sequence (Q9Y2T6 whole entry, the tested form may be a part): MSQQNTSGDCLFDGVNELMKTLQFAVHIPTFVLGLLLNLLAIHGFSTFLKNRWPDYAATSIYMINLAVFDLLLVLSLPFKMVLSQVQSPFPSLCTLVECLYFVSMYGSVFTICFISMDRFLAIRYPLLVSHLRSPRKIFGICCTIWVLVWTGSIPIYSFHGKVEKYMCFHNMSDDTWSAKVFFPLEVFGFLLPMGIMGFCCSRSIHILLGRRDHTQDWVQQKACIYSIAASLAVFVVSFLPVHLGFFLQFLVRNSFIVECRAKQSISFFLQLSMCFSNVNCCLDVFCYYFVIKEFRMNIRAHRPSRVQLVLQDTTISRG
Aryl hydrocarbon receptor, sequence (P35869 whole entry): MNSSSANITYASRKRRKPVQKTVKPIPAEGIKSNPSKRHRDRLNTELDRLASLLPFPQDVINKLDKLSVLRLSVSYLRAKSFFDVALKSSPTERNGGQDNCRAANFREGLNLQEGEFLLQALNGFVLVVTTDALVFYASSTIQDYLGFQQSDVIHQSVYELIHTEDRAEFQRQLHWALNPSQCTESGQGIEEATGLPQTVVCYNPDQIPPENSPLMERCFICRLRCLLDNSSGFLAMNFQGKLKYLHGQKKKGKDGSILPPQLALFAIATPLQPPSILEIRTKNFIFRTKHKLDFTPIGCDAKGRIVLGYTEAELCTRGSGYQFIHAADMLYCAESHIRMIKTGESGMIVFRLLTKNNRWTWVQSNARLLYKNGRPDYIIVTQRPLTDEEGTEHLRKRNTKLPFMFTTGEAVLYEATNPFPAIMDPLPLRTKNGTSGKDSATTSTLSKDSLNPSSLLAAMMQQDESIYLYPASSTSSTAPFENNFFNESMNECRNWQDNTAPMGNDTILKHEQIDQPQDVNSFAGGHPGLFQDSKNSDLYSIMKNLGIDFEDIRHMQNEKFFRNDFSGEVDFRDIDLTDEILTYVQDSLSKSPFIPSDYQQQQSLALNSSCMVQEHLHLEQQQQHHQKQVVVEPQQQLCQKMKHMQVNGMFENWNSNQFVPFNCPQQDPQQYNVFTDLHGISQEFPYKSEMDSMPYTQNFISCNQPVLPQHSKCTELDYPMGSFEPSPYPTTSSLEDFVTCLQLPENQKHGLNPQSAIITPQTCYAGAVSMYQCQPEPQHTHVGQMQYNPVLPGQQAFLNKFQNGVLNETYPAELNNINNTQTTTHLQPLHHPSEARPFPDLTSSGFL
Sphingosine 1-phosphate receptor 2, sequence (O95136 whole entry): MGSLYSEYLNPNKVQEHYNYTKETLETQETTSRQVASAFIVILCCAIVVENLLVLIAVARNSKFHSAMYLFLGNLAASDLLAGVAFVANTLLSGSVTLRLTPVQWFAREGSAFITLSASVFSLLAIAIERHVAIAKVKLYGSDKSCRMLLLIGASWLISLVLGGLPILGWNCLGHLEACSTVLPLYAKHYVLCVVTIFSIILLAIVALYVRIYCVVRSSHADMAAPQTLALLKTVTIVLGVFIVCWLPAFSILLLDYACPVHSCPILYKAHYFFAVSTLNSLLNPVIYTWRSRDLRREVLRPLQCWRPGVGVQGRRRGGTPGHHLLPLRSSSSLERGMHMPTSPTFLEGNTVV
Aurora kinase A, sequence (O14965 whole entry): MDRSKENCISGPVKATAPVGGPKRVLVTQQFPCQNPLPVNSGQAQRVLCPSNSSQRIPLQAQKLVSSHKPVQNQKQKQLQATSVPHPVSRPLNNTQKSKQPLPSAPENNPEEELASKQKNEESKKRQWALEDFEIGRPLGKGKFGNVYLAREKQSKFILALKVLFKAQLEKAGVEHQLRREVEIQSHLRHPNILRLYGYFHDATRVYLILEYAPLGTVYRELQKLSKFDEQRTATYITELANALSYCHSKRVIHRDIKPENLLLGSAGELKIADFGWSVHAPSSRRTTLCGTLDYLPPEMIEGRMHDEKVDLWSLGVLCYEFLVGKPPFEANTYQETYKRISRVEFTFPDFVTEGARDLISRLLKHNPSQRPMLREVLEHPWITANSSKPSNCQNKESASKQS
26S proteasome non-ATPase regulatory subunit 14, sequence (O00487 whole entry): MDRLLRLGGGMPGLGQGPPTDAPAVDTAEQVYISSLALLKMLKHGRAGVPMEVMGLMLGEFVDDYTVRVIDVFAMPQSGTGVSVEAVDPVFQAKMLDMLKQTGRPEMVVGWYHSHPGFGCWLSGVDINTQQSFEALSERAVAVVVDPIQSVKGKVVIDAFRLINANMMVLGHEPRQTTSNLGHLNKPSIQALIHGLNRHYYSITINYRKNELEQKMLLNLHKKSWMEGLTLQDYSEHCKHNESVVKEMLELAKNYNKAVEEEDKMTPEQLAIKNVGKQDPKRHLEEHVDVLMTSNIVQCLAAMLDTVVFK

## COc1ccc(CN2C(=O)NC(=O)/C(=C\c3ccco3)C2=O)cc1
[1]
  IC50: 3.34 µM (active)
[2]
  IC50: 3.91 µM (active)
[3]
  IC50: 12.3 µM (active)
[4]
  IC50: 26.5 µM (active)
[5]
  IC50: 12.7 µM (active)
Prothrombin
  IC50: 54.1 µM (active)
[6]
  AC50: 12.8 µM (active)

## COc1ccc(CCN(C)C(=O)c2cc(-c3ccccc3)nc3ccc(C)cc23)cc1OC
[7]
  IC50: 0.478 µM (active)

## CCOc1ccc(C(=O)Nc2cc(-c3nc4ccccc4[nH]3)ccc2Cl)cc1[N+](=O)[O-]
[8]
  EC50: 8.7 µM (active)
[9]
  EC50: 8.99 µM (active)
[10]
  IC50: 2.14 µM (active)
[11]
  IC50: 6.73 µM (active)
[12]
  IC50: 3.11 µM (active)
[13]
  IC50: 29.9 µM (inactive)

## Cc1nc(N)nc(N)c1-c1ccc([N+](=O)[O-])cc1
[14]
  IC50: 12.3 µM (active)
[15]
  IC50: 11.7 µM (active)

## CCN(CC(=O)Nc1ccc(NC(C)=O)cc1)C(=O)c1ccccc1SCc1c(C)noc1C
[16]
  IC50: 2.22 µM (active)

## O=C(c1ccoc1)N1CCN(c2cc(-c3ccccc3)nc3cc(-c4ccccc4)nn23)CC1
[17]
  EC50: 2.02 µM (active)
[18]
  EC50: 1.79 µM (active)

## O=C(O)C1(C(=O)Nc2ccc(Cl)cc2Cl)CC1
[19]
  AC50: 50.1 µM (inconclusive)

## Sc1nnc(C2CCCCC2)n1/N=C/c1ccccc1Br
[20]
  IC50: 155 µM (inactive)

## CCOc1ccc(-c2nc(C(=O)N(C3CCCCC3)C3CCCCC3)co2)cc1OCC
[21]
  EC50: > 50 µM (inactive)
[22]
  EC50: > 50 µM (inactive)

## CO/N=C/c1ccc(N2CCCC2)c([N+](=O)[O-])c1
[23]
  EC50: > 104 µM (inactive)

## CCOC(=O)C(C(N)=O)C(=S)Nc1ccc(C)cc1 (stereo not drawn)
Aurora kinase A
  Ki: 0.0501 µM (active)
[24]
  Ki: 5.01 µM (active)

## CNC(=O)C[C@@H]1CC[C@@H]2[C@@H](COc3ccc(NC(=O)Nc4ccc(F)c(F)c4)cc3C(=O)N2C)O1
[25]
  AC50: 4.95 µM (active)

## CCOc1cc(N)c(Cl)cc1C(=O)NCC1CN(Cc2ccc(F)cc2)CCO1 (stereo not drawn) [MOSAPRIDE CITRATE]
[26]
  IC50: 12.7 µM (inactive)
